The target in one assay is T1, recombinant human CXCR2 (Homo sapiens, UniProt P25025).
T1 construct: TEV protease site; Gal4-VP16 transcription factor
T1 sequence (P25025 1-360): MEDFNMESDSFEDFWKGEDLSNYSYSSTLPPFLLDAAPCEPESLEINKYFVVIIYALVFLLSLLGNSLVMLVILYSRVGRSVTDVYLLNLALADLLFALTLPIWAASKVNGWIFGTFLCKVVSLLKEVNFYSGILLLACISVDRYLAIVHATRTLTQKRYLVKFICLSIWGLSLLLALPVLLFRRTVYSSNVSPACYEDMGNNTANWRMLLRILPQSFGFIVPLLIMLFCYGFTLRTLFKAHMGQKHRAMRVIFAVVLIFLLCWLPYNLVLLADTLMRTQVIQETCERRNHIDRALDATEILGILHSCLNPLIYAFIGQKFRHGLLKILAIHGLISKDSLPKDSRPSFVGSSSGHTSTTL
As to the kind of experiment: CXCR2 Tango assay. The note with it: mean pIC50 of multiple test results; stimulated with 80 nM hCXCL1; reporter gene blue/green emission ratio; read-out: pIC50 (CXCR2 Tango assay) (converted). The assay is classed as cell-based. In short, it runs like this:
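A stable cell line carries human CXCR2 fused to a TEV site and Gal4-VP16, with protease-tagged arrestin. Cells (~10,000/well) were stimulated overnight at 37 °C with 80 nM hCXCL1 and a 10-point compound dilution. CCF4-AM beta-lactamase FRET (460/530 nm ratio) was read, normalized to hCXCL1 and DMSO, and mean pIC50 reported.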
(A reporter such as luciferase makes a cellular process visible.)

Assay [1] concerns upregulation of CD11b in GROα stimulated neutrophils in human whole blood. Briefly: Human whole blood assay (CD11b upregulation). The assay is classed as cell-based. The settings on record: Neutrophil, inhibition of CD11b upregulation, GROα 33 nM final, flow cytometry, read-out: pIC50 (human whole blood assay) (converted). The protocol: The whole blood assay tested the compounds' ability to inhibit the upregulation of CD11b in GROα stimulated neutrophils in human whole blood.
Blood was withdrawn by venipuncture from consented adults and poured into a Sterilin tube containing an anti-coagulant Heparin (10 uL/mL of blood). All the test compounds were dissolved in DMSO to 4 mM and serial diluted across the plate, 1 in 3 to provide 10 point dose response curves. The compounds were then diluted 100 fold in -PBS [Phosphate buffered saline (without Calcium Chloride and Magnesium Chloride)] after which, 1 uL was dispensed in 96 U bottom Costar plates using an FX.
10 uL of blood was transferred to the compound plate using a multi-channel pipette, gently tapped and incubated for 15 minutes, at 37° C. After 15 minutes, the stimulant GROα was diluted to 100 nM in 0.1% BSA (Albumin Bovine Serum)-PBS and 5 uL is dispensed across the whole plate for a final concentration of 33 nM. The plate was gently tapped and incubated further for 15 minutes at 37° C. The plate was placed on ice for 1 minute before addition of 10 uL of an antibody cocktail consisting of CD11b-FITC (40 ug/mL) purchased from BioLegend (address: Cambridge Bioscience, Munro House, Trafalgar Way, Bar Hill, Cambridge, UK) and CD16-PE purchased from BD Pharmingen (address: The Danby Building, Edmung Halley Road, Oxford Science Park, Oxford, UK) (stock concentration 100 tests, 2 mL stock volume is diluted 1 in 5). The plate was placed on ice for 1 hour in the dark. The cells were then fixed using 200 uL/well of 1×FACS (Flow Activated Cell Sorting) Lyse solution (Becton and Dickinson-BD) and on ice for 20 minutes in the dark. The plate was centrifuged at 1600 rpm for 5 minutes and re-suspended with 200 uL of ice cold PBS. This step was repeated twice and on the final step the plate was re-suspended with 50 uL of ice cold -PBS for flow Cytometric analysis.
Samples were run on a Becton and Dickinson (BD)-Acurri C6 Flow Cytometer using a HyperCyt sampling apparatus (IntelliCyt) with a flow rate 2 uL/sec. CD11b upregulation is monitored in neutrophils and identified using a combination of both side scatter and CD16 expression.
(A flow cytometer gives signals particle by particle.)

Where a name gives a salt, the structure may show the parent alone. Read-outs that look alike come from different tables or passages of the source.

In the case of `CC1=CCC[C@H]1NC(=O)Nc1ccc(Cl)c(S(=O)(=O)C(C)c2ncccn2)c1O` (stereo partly drawn) [Compound 27, 1-(4-chloro-2-hydroxy-3-((1-(pyrimidin-2-yl)ethyl)sulfonyl)phenyl)-3-((R)-2-methylcyclopent-2-en-1-yl)urea], the IC50 on recombinant human CXCR2 is ≤ 10 nM; in assay [1], 25.1 to 2510 nM.

Turning to `CC1=CCC[C@H]1NC(=O)Nc1ccc(C#N)c(S(=O)(=O)C(C)(C)C(F)(F)F)c1O` [Compound 31, (R)-1-(4-cyano-2-hydroxy-3-((1,1,1-trifluoro-2-methylpropan-2-yl)sulfonyl)phenyl)-3-(2-methylcyclopent-2-en-1-yl)urea], the IC50 is ≤ 1 nM on recombinant human CXCR2 and 25.1 to 2510 nM in assay [1].

In the case of `CC1(S(=O)(=O)c2c(Cl)ccc(NC(=O)N[C@@H]3CCC=C3Cl)c2O)CCOC1` (stereo partly drawn) [Compound 39, 1-(4-chloro-2-hydroxy-3-((3-methyltetrahydro-furan-3-yl)sulfonyl)phenyl)-3-((R)-2-chlorocyclopent-2-en-1-yl)urea], the IC50 is ≤ 1 nM at recombinant human CXCR2 and 25.1 to 2510 nM in assay [1].

Consider `CC1(S(=O)(=O)c2c(Cl)ccc(NC(=O)N[C@@H]3CCC=C3Cl)c2O)CCOCC1` [Compound 40, (R)-1-(4-chloro-2-hydroxy-3-((4-methyltetrahydro-2H-pyran-4-yl)sulfonyl)phenyl)-3-(2-chlorocyclopent-2-en-1-yl)urea], for which the figures for the IC50 (on recombinant human CXCR2; in assay [1]) were ≤ 10 nM and 25.1 to 2510 nM, respectively.

For the compound `[2H]C([2H])([2H])C1(S(=O)(=O)c2c(Cl)ccc(NC(=O)N[C@@H]3CCC=C3Cl)c2O)CCOCC1` [Compound 41], the values for the IC50 (on recombinant human CXCR2; in assay [1]) were ≤ 1 nM and 25.1 to 2510 nM, respectively.

Turning to `CC1=CCC[C@H]1NC(=O)Nc1ccc(Cl)c(S(=O)(=O)[C@H]2C[C@H](N3CC[C@@H](F)C3)C2)c1O` [Compound 49, trans-1-(4-chloro-3-((3-((R)-3-fluoropyrrolidin-1-yl)cyclobutyl)sulfonyl)-2-hydroxyphenyl)-3-((R)-2-methylcyclopent-2-en-1-yl)urea, trifluoroacetic acid salt], the IC50 is ≤ 1 nM on recombinant human CXCR2 and 25.1 to 2510 nM in assay [1].

Consider `CC1=CCC[C@H]1NC(=O)Nc1ccc(Cl)c(S(=O)(=O)C(C)(C)[C@H]2CCOC2)c1O` [Compound 56, 1-(4-chloro-2-hydroxy-3-((2-((S)-tetrahydrofuran-3-yl)propan-2-yl)sulfonyl)phenyl)-3-((R)-2-methylcyclopent-2-en-1-yl)urea], for which the IC50 on recombinant human CXCR2 was ≤ 10 nM; in assay [1] it was 25.1 to 2510 nM.

As for `CC1=CCC[C@H]1NC(=O)Nc1ccc(Cl)c(S(=O)(=O)C(C)(C)C)c1O` [Compound 57], the IC50 on recombinant human CXCR2 was ≤ 1 nM; in assay [1], 25.1 to 2510 nM.

Take `CC1=CCC[C@H]1NC(=O)Nc1ccc(Cl)c(S(=O)(=O)C(C)(C)C2CCOC2)c1O` (stereo partly drawn) [Compound 59, 1-(4-chloro-2-hydroxy-3-((2-(tetrahydrofuran-3-yl)propan-2-yl)sulfonyl)phenyl)-3-((R)-2-methylcyclopent-2-en-1-yl)urea]: the IC50 at recombinant human CXCR2 was ≤ 1 nM; in assay [1], 25.1 to 2510 nM.

As for `CC1=CCC[C@H]1NC(=O)Nc1ccc(Cl)c(S(=O)(=O)C(C)(C)C2CCOCC2)c1O` [Compound 60, (R)-1-(4-chloro-2-hydroxy-3-((2-(tetrahydro-2H-pyran-4-yl)propan-2-yl)sulfonyl)phenyl)-3-(2-methylcyclopent-2-en-1-yl)urea], the results for the IC50 (on recombinant human CXCR2; in assay [1]) were ≤ 1 nM and 25.1 to 2510 nM, respectively.

As for `CC1=CCC[C@H]1NC(=O)Nc1ccc(Cl)c(S(=O)(=O)C(C)(C)CF)c1O` [Compound 62, (R)-1-(4-chloro-3-((1-fluoro-2-methylpropan-2-yl)sulfonyl)-2-hydroxyphenyl)-3-(2-methylcyclopent-2-en-1-yl)urea], the IC50 is ≤ 1 nM at recombinant human CXCR2 and 25.1 to 2510 nM in assay [1].

For `CC1=CCC[C@H]1NC(=O)Nc1ccc(Cl)c(S(=O)(=O)C2(C)CCCOC2)c1O` (stereo partly drawn) [Compound 66, 1-(4-chloro-2-hydroxy-3-((3-methyltetrahydro-2H-pyran-3-yl)sulfonyl)phenyl)-3-((R)-2-methylcyclopent-2-en-1-yl)urea], the IC50 is ≤ 10 nM on recombinant human CXCR2 and 25.1 to 2510 nM in assay [1].

Take `CC1=CCC[C@H]1NC(=O)Nc1ccc(Cl)c(S(=O)(=O)C2(C)CCOC2)c1O` (stereo partly drawn) [Compound 68, 1-(4-chloro-2-hydroxy-3-((3-methyltetrahydro-furan-3-yl)sulfonyl)phenyl)-3-((R)-2-methylcyclopent-2-en-1-yl)urea]: the IC50 at recombinant human CXCR2 was ≤ 10 nM; in assay [1] (Homo sapiens), 25.1 to 2510 nM.

For `CC1=CCC[C@H]1NC(=O)Nc1ccc(Cl)c(S(=O)(=O)C2(C)CCOCC2)c1O` [Compound 69, (R)-1-(4-chloro-2-hydroxy-3-((4-methyltetrahydro-2H-pyran-4-yl)sulfonyl)phenyl)-3-(2-methylcyclopent-2-en-1-yl)urea], the results for the IC50 (on recombinant human CXCR2; in assay [1]) were ≤ 1 nM and 25.1 to 2510 nM, respectively.

In the case of `[2H]C([2H])([2H])C1(S(=O)(=O)c2c(Cl)ccc(NC(=O)N[C@@H]3CCC=C3C)c2O)CCOCC1` [Compound 70], the IC50 on recombinant human CXCR2 is ≤ 1 nM; in assay [1], 25.1 to 2510 nM.

As to `CC1=CCC[C@H]1NC(=O)Nc1ccc(Cl)c(S(=O)(=O)C2(CF)CCOCC2)c1O` [Compound 72, (R)-1-(4-chloro-3-((4-(fluoromethyl)tetra-hydro-2H-pyran-4-yl)sulfonyl)-2-hydroxyphenyl)-3-(2-methylcyclopent-2-en-1-yl)urea], the IC50 is ≤ 10 nM at recombinant human CXCR2 and 25.1 to 2510 nM in assay [1].

Regarding `CC1=CCC[C@H]1NC(=O)Nc1ccc(Cl)c(S(=O)(=O)C2(F)CCOCC2)c1O` [Compound 75, (R)-1-(4-chloro-3-((4-fluorotetrahydro-2H-pyran-4-yl)sulfonyl)-2-hydroxyphenyl)-3-(2-methylcyclopent-2-en-1-yl)urea], the IC50 on recombinant human CXCR2 was ≤ 1 nM; in assay [1], 25.1 to 2510 nM.

Take `CC1=CCC[C@H]1NC(=O)Nc1ccc(Cl)c(S(=O)(=O)C2CC(F)(F)C2)c1O` [Compound 76, (R)-1-(4-chloro-3-((3,3-difluorocyclobutyl)sulfonyl)-2-hydroxyphenyl)-3-(2-methylcyclopent-2-en-1-yl)urea trifluoroacetic acid salt]: the IC50 was ≤ 1 nM at recombinant human CXCR2 and 25.1 to 2510 nM in assay [1].

As to `CC1=CCC[C@H]1NC(=O)Nc1ccc(Cl)c(S(=O)(=O)C2CCCOC2)c1O` (stereo partly drawn) [Compound 78, 1-(4-chloro-2-hydroxy-3-((tetrahydro-2H-pyran-3-yl)sulfonyl)phenyl)-3-((R)-2-methylcyclopent-2-en-1-yl)urea], the IC50 on recombinant human CXCR2 was ≤ 10 nM; in assay [1], 25.1 to 2510 nM.

Consider `CC1=CCC[C@H]1NC(=O)Nc1ccc(Cl)c(S(=O)(=O)C2CCN(C3CCC3)CC2)c1O` [Compound 82, (R)-1-(4-chloro-3-((1-cyclobutylpiperidin-4-yl)sulfonyl)-2-hydroxyphenyl)-3-(2-methylcyclopent-2-en-1-yl)urea trifluoroacetic acid salt], for which the figures for the IC50 (at recombinant human CXCR2; in assay [1]) were ≤ 1 nM and 25.1 to 2510 nM, respectively.

As to `CC1=CCC[C@H]1NC(=O)Nc1ccc(Cl)c(S(=O)(=O)n2ccc3cccnc32)c1O` [Compound 90, (R)-1-(3-((1H-pyrrolo[2,3-b]pyridin-1-yl)sulfonyl)-4-chloro-2-hydroxyphenyl)-3-(2-methylcyclopent-2-en-1-yl)urea], the figures for the IC50 (at recombinant human CXCR2; in assay [1]) were ≤ 1 nM and 25.1 to 2510 nM, respectively.

Regarding `CC1=CCC[C@H]1NC(=O)Nc1ccc(Cl)c(S(=O)(=O)N2CCN3CCC[C@@]3(C)C2)c1O` [Compound 93, 1-(4-chloro-2-hydroxy-3-(((S)-8a-methylhexahydro-pyrrolo[1,2-a]pyrazin-2(1H)-yl)sulfonyl)phenyl)-3-((R)-2-methylcyclopent-2-en-1-yl)urea, trifluoroacetic acid salt], the IC50 was ≤ 10 nM at recombinant human CXCR2 and 25.1 to 2510 nM in assay [1].
